Results as given in patent US20220217980A1, “DITHIOCARBAMATE FUNGICIDE MACROMOLECULAR COMPLEXES” (Adama Makhteshim Ltd., priority 2019, published 2022).

Columns and labels:
[1] = Zeta potential analysis of mancozeb dispersions with and without polycations (Zetasizer Nano); assay type: physicochemical
Source text: Zeta potential is an indicator for complexation and stability of a dispersion. A zeta potential close to zero between −10 mV and +10 Mv indicates a maximum interaction between polyelectrolytes and MZ. The Zeta potential is the charge that develops at the interface between a solid surface and its liquid medium. Zeta potential values give a value of the net charge (in mV) on particle surfaces.
To a 1 g/l aqueous polycation solution (chitosan (CTS), ϵ-poly-L-lysine or polyallylamine (PAA)), 5, 40, 60, 80 and 120 g/l of MZ powder was added, resulting in ratios 1:5, 1:40, 1:60, 1:80 and 1:120 (based on weigh/weight % of dry material), respectively. Mancozeb added to an aqueous solution served as a control. The dispersions were mixed for 10 min on a vortexing device.
The different polycation-mancozeb incubations were analyzed for the Zeta potential with a Zetasizer Nano (Malvern Instruments. United Kingdom).

[2] = at 20° C.; cited from earlier work

S=C([S-])NCCNC(=S)[S-].[Mn+2].[Zn] [Mancozeb, zinc; manganese(2+); N-[2-(sulfidocarbothioylamino)ethyl]carbamodithioate] showed a zeta potential ([1]; ratio polycation:mancozeb 1:5) of −18.2 mV, a zeta potential ([1]; ratio polycation:mancozeb 1:40) of −20.6 mV and a zeta potential ([1]; ratio polycation:mancozeb 1:60) of −20.5 mV. For the same compound, the zeta potential ([1]; ratio polycation:mancozeb 1:80) was −18.9 mV, the zeta potential ([1]; ratio polycation:mancozeb 1:120) was −18.3 mV and the solubility [2] was “about 6.2 mg per liter”.
